Reference: patent US6924279B2, “Crystalline 1-methylcarbapenem derivatives” (Sankyo Company, Limited, priority 1999, dated 2005)
Where two headings read alike, the source gives them in different places.

Legend:
[1] = Stability test in desiccator at 40° C. and 75% relative humidity (HPLC remaining amount); assay type: physicochemical
Method: (§1) The crystalline compounds obtained in Example 1, 2, 4 and 5 were kept for about 2 months in a desiccator at 40° C. and 75% relative humidity and in a desiccator at 60° C. in which silica gel was placed, respectively. The non-crystalline powdered compound (lyophilized product) obtained according to the procedure described in U.S. Pat. No. 6,090,802 Example 72 and in Japanese Patent Application Publication No. Hei-11-071277, which is a reference sample, was kept under the same conditions described above. The remaining amount of the crystalline compounds and the non-crystalline powdered compound were determined after 7, 20, 21, 28, and 56 days by high pressure liquid chromatography on a L-Column ODS (4.6 mm Φ×150 mm, (trade mark) manufactured by Kagakuhinn kennsa kyoukai) eluting with 20 mM KH2PO4 (pH 7.0): CH3CN=96:4 at 1.0 ml/minute at 60° C. using an ultraviolet wave length of 300 nm. The remaining percentages of these compounds were calculated from the remaining amount of them and show in Tables 1-4.

[2] = Stability test in desiccator at 60° C. in which silica gel was placed (HPLC remaining amount); assay type: physicochemical; settings: desiccator at 60° C. with silica gel
Method: as §1

[3] = system: S. aureus 535 (MRSA); assay: Antibiotic activity test, agar-plate dilution method; assay type: cell-based, Staphylococcus aureus
Method: (§2) The MIC (μg/ml), the lowest concentration of antibiotic which inhibits growth of the test bacterial strain, was determined by the agar-plate dilution method. The crystalline compounds obtained in Example 1, 2, 4 and 5 of this invention were evaluated against various bacterial strains by determining the MIC of each compound with respect to each strain.

[4] = system: E. coli 609; assay: as above; assay type: cell-based, Escherichia coli
Method: as §2

[5] = system: Enterobacter cloacae 963; assay: as above; assay type: cell-based
Method: as §2

[6] = system: Escherichia coli NIHJ; assay: as above; assay type: cell-based
Method: as §2

[7] = system: Klebisella pneumoniae 806; assay: as above; assay type: cell-based
Method: as §2

[8] = system: Pseudomonas aeruginosa 1001; assay: as above; assay type: cell-based
Method: as §2

[9] = system: Serratia marcescens 1184; assay: as above; assay type: cell-based
Method: as §2

[10] = system: Staphylococcus aureus 209P; assay: as above; assay type: cell-based
Method: as §2

[11] = system: K. pneumoniae 846; assay: as above; assay type: cell-based, Klebisella pneumoniae
Method: as §2

CCO.C[C@@H](O)[C@H]1C(=O)N2C(C(=O)O)=C(S[C@H]3C[C@@H](C(=O)N4CC[C@H](NC(=O)CNC(=N)N)C4)N(C)C3)[C@H](C)[C@H]12.O=C(O)O [Example 1, (1R,5S,6S)-2-[(2S,4S)-2-[(3S)-3-(2-Guanidinoacetylamino)pyrrolidin-1-ylcarbonyl]-1-methylpyrrolidin-4-ylthio]-6-[(1R)-1-hydroxyethyl]-1-methyl-1-carbapen-2-em-3-carboxylic acid.1/2 Carbonate.1/2 Ethanol]
Remaining percentage of compound ([1]; After 20 days): 98.5% | Remaining percentage of compound ([1]; After 56 days): 92.9% | Remaining percentage of compound ([2]; After 21 days): 98.5% | Remaining percentage of compound ([2]; After 56 days): 96.4% | Antibiotic activity (MIC) [3]: 1.5 µg/mL | Antibiotic activity (MIC) [4]: 0.02 µg/mL | Antibiotic activity (MIC) [5]: 0.05 µg/mL | Antibiotic activity (MIC) [6]: ≦0.01 μg/ml | Antibiotic activity (MIC) [7]: ≦0.01 μg/ml | Antibiotic activity (MIC) [8]: 0.2 µg/mL | Antibiotic activity (MIC) [9]: ≦0.01 μg/ml | Antibiotic activity (MIC) [10]: ≦0.01 μg/ml | Antibiotic activity (MIC) [11]: ≦0.01 μg/ml

CCO.C[C@@H](O)[C@H]1C(=O)N2C(C(=O)O)=C(S[C@H]3C[C@@H](C(=O)N4CC[C@H](NC(=O)CNC(=N)N)C4)N(C)C3)[C@H](C)[C@H]12.C[C@@H](O)[C@H]1C(=O)N2C(C(=O)O)=C(S[C@H]3C[C@@H](C(=O)N4CC[C@H](NC(=O)CNC(=N)N)C4)N(C)C3)[C@H](C)[C@H]12 [Example 2, (1R,5S,6S)-2-[(2S,4S)-2-[(3S)-3-(2-Guanidinoacetylamino)pyrrolidin-1-ylcarbonyl]-1-methylpyrrolidin-4-ylthio]-6-[(1R)-1-hydroxyethyl]-1-methyl-1-carbapen-2-em-3-carboxylic Acid.1/2 Ethanol]
Remaining percentage of compound ([1]; After 20 days): 95.8% | Remaining percentage of compound ([1]; After 56 days): 87.3% | Remaining percentage of compound ([2]; After 21 days): 100.1% | Remaining percentage of compound ([2]; After 56 days): 96.8% | Antibiotic activity (MIC) [3]: 1.5 µg/mL | Antibiotic activity (MIC) [4]: ≦0.01 μg/ml | Antibiotic activity (MIC) [5]: 0.05 µg/mL | Antibiotic activity (MIC) [6]: ≦0.01 μg/ml | Antibiotic activity (MIC) [7]: ≦0.01 μg/ml | Antibiotic activity (MIC) [8]: 0.2 µg/mL | Antibiotic activity (MIC) [9]: ≦0.01 μg/ml | Antibiotic activity (MIC) [10]: ≦0.01 μg/ml | Antibiotic activity (MIC) [11]: ≦0.01 μg/ml

C[C@@H](O)[C@H]1C(=O)N2C(C(=O)O)=C(S[C@H]3C[C@@H](C(=O)N4CC[C@H](NC(=O)CNC(=N)N)C4)N(C)C3)[C@H](C)[C@H]12 [Example 4, (1R,5S,6S)-2-[(2S,4S)-2-[(3S)-3-(2-Guanidinoacetylamino)pyrrolidin-1-ylcarbonyl]-1-methylpyrrolidin-4-ylthio]-6-[(1R)-1-hydroxyethyl]-1-methyl-1-carbapen-2-em-3-carboxylic Acid]
Remaining percentage of compound ([1]; After 20 days): 99.4% | Remaining percentage of compound ([1]; After 56 days): 94.3% | Remaining percentage of compound ([2]; After 21 days): 100.4% | Remaining percentage of compound ([2]; After 56 days): 100.9% | Antibiotic activity (MIC) [3]: 1.5 µg/mL | Antibiotic activity (MIC) [4]: 0.02 µg/mL | Antibiotic activity (MIC) [5]: 0.05 µg/mL | Antibiotic activity (MIC) [6]: ≦0.01 μg/ml | Antibiotic activity (MIC) [7]: ≦0.01 μg/ml | Antibiotic activity (MIC) [8]: 0.2 µg/mL | Antibiotic activity (MIC) [9]: ≦0.01 μg/ml | Antibiotic activity (MIC) [10]: ≦0.01 μg/ml | Antibiotic activity (MIC) [11]: ≦0.01 μg/ml

C[C@@H](O)[C@H]1C(=O)N2C(C(=O)O)=C(S[C@H]3C[C@@H](C(=O)N4CC[C@H](NC(=O)CNC(=N)N)C4)N(C)C3)[C@H](C)[C@H]12 [Example 5, (1R,5S,6S)-2-[(2S,4S)-2-[(3S)-3-(2-Guanidinoacetylamino)pyrrolidin-1-ylcarbonyl]-1-methylpyrrolidin-4-ylthio]-6-[(1R)-1-hydroxyethyl]-1-methyl-1-carbapen-2-em-3-carboxylate.1/4 Ethanol.3/2 Hydrate]
Remaining percentage of compound ([1]; After 7 days): 98.9% | Remaining percentage of compound ([1]; After 28 days): 94.6% | Remaining percentage of compound ([1]; After 56 days, Hydrate): 83.2% | Remaining percentage of compound ([2]; After 7 days): 98.3% | Remaining percentage of compound ([2]; After 28 days): 97.0% | Remaining percentage of compound ([2]; After 56 days, Hydrate): 97.6% | Antibiotic activity (MIC) ([4]; Hydrate): ≦0.01 μg/ml | Antibiotic activity (MIC) ([8]; Hydrate): 0.39 µg/mL
